In US11608320B2, “Oxazolidinone hydroxamic acid derivatives” (KUWAIT UNIVERSITY, priority 2020, dated 2023):
Where two headings read alike, the source gives them in different places.

Assays:
[1] = system: degranulation of bone marrow-derived mouse mast cells; test: Inhibition of degranulation (β-hexoseaminidase release) in allergen/IgE-activated BMMC; assay type: cell-based; settings: anti-DNP IgE sensitized, DNP-BSA 30 ng/ml, 30 min
From the text: (§1) Inhibition of LTC4 release and degranulation in allergen/IgE-activated bone marrow-derived mouse mast cells (BMMC): Bone marrow-derived mast cells (BMMC) were generated from pathogen-free 5-7 week old male Balb/c mice according to the method of Davis et al., [2004] (Davis, B. J., et al., (2004), Journal of Immunology, 173: 6914-6920). Essentially, bone marrow cells were obtained by flushing of the femoral bone marrow and cultured in RPMI 1640 medium supplemented with 10% FBS, 100 U/ml penicillin, and 100 μg/ml streptomycin, 25 mM HEPES, 1.0 mM sodium pyruvate, 0.1 mM nonessential amino acids, 0.0035% 2-mercaptoethanol, and 30 ng/ml mouse recombinant IL-3, with culture medium replaced every two days. Cells were used after 4-8 weeks of culture, by which time at least 97% of the cells would have differentiated into mast cells.
The generated BMMCs were seeded at 5×10^4 cells/well in a 96-well flat-bottom culture plate and passively sensitized overnight with 0.5 μg/ml anti-DNP monoclonal IgE antibody (clone SPE-7, Sigma-Aldrich, St. Louis, Mo., USA). The cells were then washed twice to remove any unbound antibody and subsequently re-suspended in reaction buffer (135 mM NaCl, 5 mM KCl, 1.8 mM CaCl2), 1 mM MgCl2, 5.6 mM glucose, 0.05% BSA and 20 mM HEPES, pH 7.4). […] After 30 min incubation at 37° C., the amount of LTC4 released into the supernatant (as index of 5-LO activity) was determined by ELISA as described below.
The concurrently-released granular enzyme, β-hexoseaminidase (as index of degranulation) was determined as described below.
The beta-hexoseaminidase released into the supernatant by the degranulating BMMCs was determined colorimetrically using p-nitrophenyl-N-acetyl-β-D-glucosaminide as substrate. […] The absorbance of the colored product (p-nitrophenol) was then read at 405 nm in a microplate reader. Results were expressed as percentage of the total cell content (determined in cells lysed with 0.1% triton-x-100).

[2] = system: zymosan-induced peritonitis; test: Zymosan-induced peritoneal inflammation in mice; assay type: in vivo, mouse; settings: 30 min before zymosan i.p., peritoneal exudate at 2 h
From the text: Inhibition of zymosan-induced peritoneal inflammation in mice: Female Balb/c mice, 6-8 weeks old, obtained from the Animal Resources Center of the Health Sciences Center, Kuwait University, were used. They were maintained under temperature-controlled conditions with an artificial 12-h light/dark cycle and allowed standard chow and water ad libitum. The study protocol was approved by the “Health Sciences Center Animal Welfare Committee” and complied with the “Guidelines for the Care and Use of Laboratory Animals” of the Health Sciences Centre, Kuwait University. The zymosan-induced peritonitis model-a recognized LT-mediated inflammatory reaction, described particularly in Hanke et al., 2013 ([…]., et al. (2013). Journal of medicinal chemistry, 56(22), 9031-9044) was used. […] After 30 min, all groups were injected intraperitonally with 0.2 ml of activated zymosan (2 mg/ml) except the control group that received 0.2 ml PBS. After 2 h, all animals were killed and the peritoneal exudate was collected by washing the cavity with 3 ml of heparinized (10 IU/ml) PBS.

[3] = system: LTC4 release from IgE/antigen-activated mouse mast cells (BMMC); test: Inhibition of LTC4 release in allergen/IgE-activated bone marrow-derived mouse mast cells; assay type: cell-based; settings: for IC50: IgE/antigen (DNP-BSA)-activated BMMC, read-out: Inhibitory Activity IC50, Mouse mast cell LTC4
From the text: as §1
The generated BMMCs were seeded at 5×10^4 cells/well in a 96-well flat-bottom culture plate and passively sensitized overnight with 0.5 μg/ml anti-DNP monoclonal IgE antibody (clone SPE-7, Sigma-Aldrich, St. Louis, Mo., USA). The cells were then washed twice to remove any unbound antibody and subsequently re-suspended in reaction buffer (135 mM NaCl, 5 mM KCl, 1.8 mM CaCl2), 1 mM MgCl2, 5.6 mM glucose, 0.05% BSA and 20 mM HEPES, pH 7.4). They were then pre-incubated with the test compounds (0.01-30 μM) or the solvent (0.05% DMSO) for 15 min before being stimulated with the specific antigen, DNP-BSA (30 ng/ml). After 30 min incubation at 37° C., the amount of LTC4 released into the supernatant (as index of 5-LO activity) was determined by ELISA as described below.
(§2) Assay of released leukotrienes/β-hexoseaminidase enzyme: Appropriately diluted supernatants were assayed for the released LTs (LTB4 and LTC4), by the enzyme immunoassay (EIA) method using assay kits supplied by R&D Systems (Minneapolis, Minn., USA) and following the manufacturer's instructions.

[4] = system: LTC4 release from isolated human monocytes; test: Inhibition of LTC4 release from isolated human monocytes (A23187-stimulated); assay type: cell-based; settings: read-out: Inhibitory Activity IC50, Human monocyte LTC4
Description: Inhibition of LTC4 release from isolated human monocytes: Mononuclear cells were first isolated from heparinized fresh blood using the Ficoll-Hypaque gradient centrifugation method. Monocytes were subsequently purified by adherence to plastic according to standard protocols. The purity of the adherent monocytes (CD14+) was routinely confirmed by flow cytometry to be >95% and viability (by trypan blue exclusion method) was routinely >97%. Adherent monocytes were then washed and incubated in 190 μl culture medium RPMI-1640 supplemented with 100 U/ml penicillin, 100 μg/ml streptomycin and 10% heat-inactivated fetal bovine serum (Sigma-Aldrich, St Louis, Mo., USA). […] After a further incubation for 15 min, the culture supernatants were recovered by centrifugation and stored at −40° C. pending LTC4 determination.
as §2

[5] = system: 5-LO-dependent generation of leukotriene B4 (LTB4) from activated human whole blood; test: Inhibition of LTB4 generation from LPS/FMLP-activated human whole blood; assay type: cell-based; settings: LPS-primed, FMLP-stimulated human whole blood; read-out: Inhibitory Activity IC50, Human whole blood LTB4
Description: Inhibition of LTB4 generation from human whole blood: All compounds were evaluated for inhibitory activity against 5-LO-dependent generation of leukotriene B4 (LTB4) from activated human whole blood. With ethical approval from the Health Sciences Center Ethical Committee of Kuwait University, heparinized fresh human blood samples from apparently healthy individuals were obtained from the Kuwait Central Blood Bank. Aliquots of 185 μl of whole blood were dispensed into each well of 96-well culture plate containing 5 μl of the priming agent, lipopolysaccharide (LPS) at a final concentration of 1 μg/ml. […] After further incubation for 15 min at 37° C., 5 μl of N-formylmethionyl-leucyl-phenylalanine (FMLP), at […] final concentration, was added to stimulate LT production. The reaction was stopped after 15 min, and the supernatants recovered by centrifugation and stored at −40° C. pending analysis of the LTB4 content.
as §2

[6] = molecular target: T1, recombinant human 5-LO enzyme (Homo sapiens, UniProt P09917); test: Direct 5-LO inhibitory activity in a cell-free assay (H2DCF-DA fluorescence); assay type: biochemical
T1 sequence (P09917 1-674): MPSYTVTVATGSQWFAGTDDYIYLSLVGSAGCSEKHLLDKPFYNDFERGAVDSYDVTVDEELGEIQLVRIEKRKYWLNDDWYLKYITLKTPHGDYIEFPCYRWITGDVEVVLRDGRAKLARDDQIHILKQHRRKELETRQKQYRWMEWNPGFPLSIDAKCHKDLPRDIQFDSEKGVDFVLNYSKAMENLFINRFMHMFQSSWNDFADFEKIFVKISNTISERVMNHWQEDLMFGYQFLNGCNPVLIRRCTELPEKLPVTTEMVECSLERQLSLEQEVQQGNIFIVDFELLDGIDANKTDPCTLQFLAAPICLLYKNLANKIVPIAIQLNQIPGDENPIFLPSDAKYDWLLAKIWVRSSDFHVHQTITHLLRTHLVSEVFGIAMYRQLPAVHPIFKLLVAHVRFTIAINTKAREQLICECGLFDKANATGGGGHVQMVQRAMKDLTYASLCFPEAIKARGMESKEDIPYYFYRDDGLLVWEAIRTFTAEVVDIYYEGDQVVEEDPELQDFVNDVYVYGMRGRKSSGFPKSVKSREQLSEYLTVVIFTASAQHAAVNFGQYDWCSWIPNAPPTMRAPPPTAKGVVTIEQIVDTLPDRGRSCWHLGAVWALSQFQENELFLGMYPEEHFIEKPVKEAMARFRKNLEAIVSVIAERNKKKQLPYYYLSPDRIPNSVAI
Description: H2DCF-DA (60 μM) was first pre-cleaved by incubating with 450 mU/ml recombinant human 5-LO enzyme in Tris buffer (containing 50 mM Tris, pH=7.5, 2 mM EDTA, 2 mM CaCl2), 1 mM dithiothreitol (DTT) and 0.6 U/ml glutathione peroxidase) for 10 min at room temperature. […] After 10 min incubation at room temperature, the reaction was started with the addition of 50 μl of the substrate solution (Tris buffer containing 20 μM ATP and 20 μM arachidonic acid). After a further 20 min, the reaction was terminated with 100 μl acetonitrile. Fluorescence was read at 500 nm excitation and 520 emission, with Novostar® microplate reader (BMG Labtech, Offenburg, Germany). Appropriate controls, including 100 μM nordihydroguaiaretic acid (NDGA), were included to isolate only the 5-LO-attributable, NDGA-inhibitable RFU values.

[7] = system: isolated human monocytes; test: In vitro toxicity testing (MTT viability); assay type: cell-based; settings: concentrations up to 50 μM, 3 h or 24 h, n=3
Description: In Vitro Toxicity Testing: Adherent human monocytes, prepared as described above, were used. The cells were cultured with various concentrations of the test compounds or vehicle, or with 0.05% Triton-X as positive control for 3 h or 24 h. At the end of the culture, cell viability was determined using the MTT (3-(4,5 dimethylthiazol-2-yl)-2,5-diphenyltetrazolium bromide) assay method. Briefly, 15 μl of the MTT solution (5 mg/ml) was added to each well, and incubated at 37° C. for 4 h. After removing the supernatant, 200 μl of dimethylsulfoxide (DMSO) was added to dissolve the crystals. Absorbance at 570 nm was then measured in a microplate reader. Viability was expressed as percentage of the vehicle-treated cells.

[8] = cell-free, recombinant human 5-LO, read-out: Inhibitory Activity IC50, Human recomb. 5-LO

SMILES | IC50 ([4]; Monocyte) [µM] | IC50 [5] [nM] | IC50 [6] [µM] | IC50 ([3]; Mus musculus) [µM] | IC50 [6, 8] [µM] | other results
CC(c1cc2ccccc2s1)N(O)C(N)=O (racemic) [Zileuton, (±)1-(1-(benzo[b]thiophen-2-yl)ethyl)-1-hydroxyurea, reference compound] | – | – | – | – | – | Inhibition of degranulation (release of granular β-hexoseaminidase) (FIG. 2B) [1]: only the representative compounds were able to inhibit degranulation; Net Exudate Vol ([2]; 3 mg/kg s.c.): 0.14 ± 0.04 mL; Total Cell No ([2]; 3 mg/kg s.c.): 16.7 ± 2.8 ×10^6; Total LTC4 ([2]; 3 mg/kg s.c.): 71.0 ± 12.4 ng; Net Exudate Vol ([2]; 10 mg/kg s.c.): 0.20 ± 0.07 mL; Total Cell No ([2]; 10 mg/kg s.c.): 24.9 ± 2.1 ×10^6; Total LTC4 ([2]; 10 mg/kg s.c.): 97.2 ± 47.3 ng; Net Exudate Vol ([2]; 30 mg/kg s.c.): no significant effect on exudate volume; Total Cell No ([2]; 30 mg/kg s.c.): 19.1 ± 4.4 ×10^6; Total LTC4 ([2]; 30 mg/kg s.c.): 48.3 ± 9.8 ng; Net Exudate Vol ([2]; 30 mg/kg s.c., listed as Zil): 0.10 ± 0.05 mL; Inhibition of generation of LTC4 from IgE/allergen-activated mast cells (FIG. 2A) ([3]; BMMC, anti-DNP IgE sensitized, DNP-BSA 30 ng/ml, 30 min): equally effective in inhibiting the generation of LTC4
CC(=O)N(O)C[C@H]1CN(c2ccc(N3CCOCC3)c(F)c2)C(=O)O1 [PH-23] | 18.7 | 3300 | > 30 | 20.7 | – | –
CCC(=O)N(O)C[C@H]1CN(c2ccc(N3CCOCC3)c(F)c2)C(=O)O1 [PH-199] | 8.2 | 1400 | 11.8 | 6.3 | – | –
CC(C)C(=O)ON(C[C@H]1CN(c2ccc(N3CCOCC3)c(F)c2)C(=O)O1)C(=O)C(C)C [PH-204] | > 50 | 10700 | – | 21.8 | > 30 | –
CC(C)C(=O)N(O)C[C@H]1CN(c2ccc(N3CCOCC3)c(F)c2)C(=O)O1 [PH-205] | 14.1 | 2300 | 3.9 | 13.8 | – | –
O=C(ON(C[C@H]1CN(c2ccc(N3CCOCC3)c(F)c2)C(=O)O1)C(=O)C1CC1)C1CC1 [PH-206] | > 50 | 7900 | – | 37.3 | > 30 | –
O=C(C1CC1)N(O)C[C@H]1CN(c2ccc(N3CCOCC3)c(F)c2)C(=O)O1 [PH-211] | 7.5 | 1300 | 3.5 | 8.7 | – | –
NC(=O)N(O)C[C@H]1CN(c2ccc(N3CCOCC3)c(F)c2)C(=O)O1 [PH-238, (R)-1-((3-(3-fluoro-4-morpholinophenyl)-2-oxooxazolidin-5-yl)methyl)-1-hydroxyurea] | 30.7 | 7900 | – | 23.8 | 14.7 | melting point: 125 to 128 °C
CCCCCC(=O)ON(C[C@H]1CN(c2ccc(N3CCOCC3)c(F)c2)C(=O)O1)C(=O)CCCCC [PH-246] | – | 1500 | – | – | 21.6 | IC50 [4]: 7.1 µM; IC50 [3]: 3.3 µM
CCCCCC(=O)N(O)C[C@H]1CN(c2ccc(N3CCOCC3)c(F)c2)C(=O)O1 [PH-247, (R)—N-((3-(3-fluoro-4-morpholinophenyl)-2-oxooxazolidin-5-yl)methyl)-N-hydroxyhexanamide] | – | – | – | – | 3.4 | melting point: 118.5 to 120.5 °C; Effect on viability of isolated human monocytes (MTT) [7]: no significant effect on cell viability
